From ChEMBL document CHEMBL1137514, “Synthesis and biological evaluation of non-peptide alpha(v)beta(3)/alpha(5)beta(1) integrin dual antagonists containing 5,6-dihydropyridin-2-one scaffolds” (Bioorg Med Chem, 2007)
Residues, ends and D or L forms follow the SMILES beside them.

Assays:
Integrin alpha-V/beta-3 = Integrin alpha-V/beta-3 (Homo sapiens, UniProt P05106+P06756); assay: Inhibition of integrin alpha-V-beta-3-mediated SK-MEL-24 cell adhesion to fibronectin
Integrin alpha-5/beta-1 = Integrin alpha-5/beta-1 (Homo sapiens, UniProt P05556+P08648); assay: Inhibition of integrin alpha-5-beta-1-mediated K562 cell adhesion to fibronectin; type: cell-based
Sequence of Integrin alpha-5/beta-1 (P05556 21-798 limits assumed): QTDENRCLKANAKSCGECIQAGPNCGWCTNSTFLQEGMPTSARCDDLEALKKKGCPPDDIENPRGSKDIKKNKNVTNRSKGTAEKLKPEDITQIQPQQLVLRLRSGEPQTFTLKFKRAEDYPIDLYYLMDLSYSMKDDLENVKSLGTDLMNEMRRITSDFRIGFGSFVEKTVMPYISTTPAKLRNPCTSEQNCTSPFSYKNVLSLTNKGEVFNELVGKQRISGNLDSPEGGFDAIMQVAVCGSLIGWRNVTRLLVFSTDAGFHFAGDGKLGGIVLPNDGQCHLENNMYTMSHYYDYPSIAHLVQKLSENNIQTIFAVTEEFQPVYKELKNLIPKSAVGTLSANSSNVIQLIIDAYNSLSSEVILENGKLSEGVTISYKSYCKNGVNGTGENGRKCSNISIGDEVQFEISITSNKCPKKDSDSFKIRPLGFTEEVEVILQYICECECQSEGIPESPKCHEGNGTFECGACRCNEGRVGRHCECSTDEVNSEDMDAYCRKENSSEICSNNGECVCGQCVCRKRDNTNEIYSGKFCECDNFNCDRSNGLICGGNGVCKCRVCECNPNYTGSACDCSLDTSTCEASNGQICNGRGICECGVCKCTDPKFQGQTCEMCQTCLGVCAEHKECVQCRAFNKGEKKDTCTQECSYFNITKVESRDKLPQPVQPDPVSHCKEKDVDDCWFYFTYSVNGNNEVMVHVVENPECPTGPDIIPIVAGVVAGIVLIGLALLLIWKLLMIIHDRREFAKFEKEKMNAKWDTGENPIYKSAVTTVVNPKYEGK
Sequence of Integrin alpha-5/beta-1 (P08648 42-894 limits assumed): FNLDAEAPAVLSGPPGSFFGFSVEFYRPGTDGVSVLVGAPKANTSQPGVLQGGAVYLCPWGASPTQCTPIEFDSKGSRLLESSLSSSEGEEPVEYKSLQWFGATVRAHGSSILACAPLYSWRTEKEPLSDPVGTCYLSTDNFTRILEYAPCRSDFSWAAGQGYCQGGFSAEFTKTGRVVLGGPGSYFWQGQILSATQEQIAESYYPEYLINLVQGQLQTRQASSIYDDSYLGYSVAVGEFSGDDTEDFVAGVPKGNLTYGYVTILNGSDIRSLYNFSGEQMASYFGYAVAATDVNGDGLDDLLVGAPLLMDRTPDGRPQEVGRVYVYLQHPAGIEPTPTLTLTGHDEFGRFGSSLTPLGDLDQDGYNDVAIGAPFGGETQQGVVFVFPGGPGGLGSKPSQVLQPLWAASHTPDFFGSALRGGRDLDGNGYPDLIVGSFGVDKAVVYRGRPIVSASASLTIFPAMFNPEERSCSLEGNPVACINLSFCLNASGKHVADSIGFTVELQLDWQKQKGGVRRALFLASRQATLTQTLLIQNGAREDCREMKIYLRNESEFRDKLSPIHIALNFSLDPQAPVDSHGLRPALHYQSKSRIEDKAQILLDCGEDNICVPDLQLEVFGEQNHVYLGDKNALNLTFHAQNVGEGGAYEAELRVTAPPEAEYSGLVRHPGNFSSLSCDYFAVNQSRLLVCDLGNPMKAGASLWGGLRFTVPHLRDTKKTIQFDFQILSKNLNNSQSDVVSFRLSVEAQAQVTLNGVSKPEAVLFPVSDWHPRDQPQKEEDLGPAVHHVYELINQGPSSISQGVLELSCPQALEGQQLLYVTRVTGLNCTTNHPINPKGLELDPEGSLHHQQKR
Sequence of Integrin alpha-5/beta-1 (P08648 895-1049 limits assumed): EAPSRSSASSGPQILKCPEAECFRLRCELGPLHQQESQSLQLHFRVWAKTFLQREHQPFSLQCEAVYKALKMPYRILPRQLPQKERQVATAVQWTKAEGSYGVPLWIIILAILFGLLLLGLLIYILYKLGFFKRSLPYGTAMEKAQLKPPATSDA

Sequence of Integrin alpha-V/beta-3 (P05106 27-788 limits assumed): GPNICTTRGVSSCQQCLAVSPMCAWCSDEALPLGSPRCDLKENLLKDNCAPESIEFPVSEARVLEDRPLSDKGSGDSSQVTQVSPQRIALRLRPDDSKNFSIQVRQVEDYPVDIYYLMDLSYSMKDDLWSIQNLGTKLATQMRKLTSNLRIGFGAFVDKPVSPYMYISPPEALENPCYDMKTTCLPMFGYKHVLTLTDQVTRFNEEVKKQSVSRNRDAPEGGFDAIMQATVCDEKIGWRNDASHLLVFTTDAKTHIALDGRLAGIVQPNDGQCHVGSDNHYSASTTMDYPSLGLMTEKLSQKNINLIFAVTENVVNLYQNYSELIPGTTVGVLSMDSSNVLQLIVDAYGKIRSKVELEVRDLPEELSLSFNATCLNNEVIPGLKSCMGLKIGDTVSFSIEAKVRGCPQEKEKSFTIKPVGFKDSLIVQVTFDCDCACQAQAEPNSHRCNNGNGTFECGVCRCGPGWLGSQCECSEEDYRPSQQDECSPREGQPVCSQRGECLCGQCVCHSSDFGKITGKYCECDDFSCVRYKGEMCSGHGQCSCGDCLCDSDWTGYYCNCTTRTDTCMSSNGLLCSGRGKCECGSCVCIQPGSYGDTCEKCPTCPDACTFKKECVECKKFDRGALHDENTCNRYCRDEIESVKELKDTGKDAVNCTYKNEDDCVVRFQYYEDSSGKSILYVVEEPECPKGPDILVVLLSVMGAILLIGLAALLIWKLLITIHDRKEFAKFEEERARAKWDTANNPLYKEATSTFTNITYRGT
Sequence of Integrin alpha-V/beta-3 (P06756 31-889 limits assumed): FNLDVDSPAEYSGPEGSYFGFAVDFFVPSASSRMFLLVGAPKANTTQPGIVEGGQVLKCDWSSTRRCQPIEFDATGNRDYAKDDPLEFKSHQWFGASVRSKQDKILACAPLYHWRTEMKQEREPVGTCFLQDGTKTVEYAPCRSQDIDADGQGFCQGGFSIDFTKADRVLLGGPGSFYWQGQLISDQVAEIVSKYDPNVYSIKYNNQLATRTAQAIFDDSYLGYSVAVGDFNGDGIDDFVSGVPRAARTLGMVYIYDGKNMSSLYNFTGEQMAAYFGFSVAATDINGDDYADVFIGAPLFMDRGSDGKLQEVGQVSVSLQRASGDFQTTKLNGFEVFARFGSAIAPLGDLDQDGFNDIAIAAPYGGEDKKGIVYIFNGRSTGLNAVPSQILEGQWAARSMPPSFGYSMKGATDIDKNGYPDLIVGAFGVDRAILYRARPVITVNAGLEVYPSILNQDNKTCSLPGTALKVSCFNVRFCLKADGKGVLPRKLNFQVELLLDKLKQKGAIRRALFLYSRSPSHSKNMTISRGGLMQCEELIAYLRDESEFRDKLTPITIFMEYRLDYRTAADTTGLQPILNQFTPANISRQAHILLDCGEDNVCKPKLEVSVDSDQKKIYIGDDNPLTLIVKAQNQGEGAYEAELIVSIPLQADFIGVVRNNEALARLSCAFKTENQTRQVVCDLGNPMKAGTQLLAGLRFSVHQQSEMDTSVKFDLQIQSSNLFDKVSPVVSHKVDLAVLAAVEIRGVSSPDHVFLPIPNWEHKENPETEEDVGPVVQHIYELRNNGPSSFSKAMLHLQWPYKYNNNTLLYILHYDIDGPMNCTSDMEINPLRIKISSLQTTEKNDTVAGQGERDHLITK
Sequence of Integrin alpha-V/beta-3 (P06756 891-1048 limits assumed): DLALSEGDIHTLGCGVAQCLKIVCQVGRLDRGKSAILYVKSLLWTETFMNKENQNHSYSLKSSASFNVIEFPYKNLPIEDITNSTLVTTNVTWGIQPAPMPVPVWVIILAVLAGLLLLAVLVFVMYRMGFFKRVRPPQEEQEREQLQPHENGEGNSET

IC50 (Integrin alpha-V/beta-3) [µM]	IC50 (Integrin alpha-5/beta-1) [µM]	Compound
> 1000	> 1000	CCCN(C(=O)C(CC(=O)O)C(=O)O)C1=C(C)CC(c2ccccc2)N(Cc2ccc(C(=N)N)cc2)C1=O (configuration not stated)
0.6	0.17	CCCN(C(=O)CC(=O)O)C1=C(C)CC(c2ccccc2)N(Cc2ccc(N)cc2)C1=O (configuration not stated)
45	> 1000	CCCN(C(=O)C(CC(=O)OC)C(=O)O)C1=C(C)CC(c2ccccc2)N(Cc2ccc(N)cc2)C1=O (configuration not stated)
> 1000	> 1000	CCCN(C(=O)C(CC(=O)O)C(=O)O)C1=C(C)CC(c2ccccc2)N(Cc2ccc(N)cc2)C1=O (configuration not stated)
0.038	0.043	CCCN(C(=O)CC(=O)O)C1=C(C)CC(c2ccccc2)N(CCCCN)C1=O (configuration not stated)
> 1000	> 1000	CCCN(C(=O)CCN)C1=C(C)CC(c2ccccc2)N(CCC(=O)O)C1=O (configuration not stated)
> 1000	> 1000	CCCN(C(=O)CCCCCN)C1=C(C)CC(c2ccccc2)N(CCC(=O)O)C1=O (configuration not stated)
> 1000	> 1000	CCCN(C(=O)CC(=O)O)C1=C(C)CC(c2ccc(C(=N)N)cc2)N([C@@H](C)c2ccc(OC)cc2)C1=O (some centres not stated)
120	> 1000	CCCN(C(=O)CC(=O)O)C1=C(C)CC(c2ccccc2)N(Cc2ccc(C(=N)N)cc2)C1=O (configuration not stated)
0.24	> 1000	CCCN(C(=O)CC(=O)O)C1=C(C)C[C@@H](c2ccc(N)cc2)N([C@@H](C)c2ccc(OC)cc2)C1=O
> 1000	> 1000	CCCN(C(=O)CCC(=O)O)C1=C(C)CC(c2ccccc2)N(Cc2ccc(C(=N)N)cc2)C1=O (configuration not stated)
> 1000	> 1000	CCCN(C(=O)C(CC(=O)OC)C(=O)O)C1=C(C)CC(c2ccccc2)N(Cc2ccc(C(=N)N)cc2)C1=O (configuration not stated)
15.1	35.1	CCCN(C(=O)CC(=O)O)C1=C(C)C[C@H](c2ccccc2)N([C@@H](C)c2ccc(N)cc2)C1=O
0.071	0.057	CCCN(C(=O)CC(=O)O)C1=C(C)C[C@@H](c2ccccc2)N([C@@H](C)c2ccc(N)cc2)C1=O
21	0.018	CCCN(C(=O)CC(=O)O)C1=C(C)C[C@H](c2ccc(N)cc2)N([C@@H](C)c2ccc(OC)cc2)C1=O
0.025	259	CC(=O)N[C@@H](CC(=O)O)C(=O)N[C@@H](CCCNC(=N)N)C(=O)N[C@@H](CC(C)C)C(=O)N[C@@H](CC(=O)O)C(=O)N[C@@H](CO)C(=O)O (Ac-DRLDS-OH)
